Measurements as given in PMC8564633, “SMAC/Diablo controls proliferation of cancer cells by regulating phosphatidylethanolamine synthesis” (Molecular Oncology, 2021).
Where two headings read alike, the source gives them in different places. Non-standard residues stand in square brackets, D forms with d. Residues, ends and D or L forms follow the SMILES beside them. Dmt = Cc1cc(O)cc(C)c1C[C@H](N)C(=O)O; Orn = NCCC[C@H](N)C(=O)O

System: A549 cells
Format: cell-based, human
Conditions: 24 h
Procedure: Cells were seeded in 96‐well cell culture plates (8000/well) and allowed to grow for 48 h. After washing with PBS, cells were fixed with 50% trichloroacetic acid and stained with SRB for 20 min. Excess SRB was removed, and cells were washed with 1% acetic acid. SRB extraction was done using 100 mM Tris‐base, and absorbance at 510 nm was determined using an Infinite M1000 plate reader (Tecan, Männedorf, Switzerland).
Fig. 7 PSD‐interacting peptides bind to PSD, inhibiting its activity, and when cell‐penetrating and mitochondria‐ or nucleus‐targeted, inhibit cell proliferation. […] (B) Inhibition of PSD activity by the 2F3 (●) or 1C11 (○) peptide. PSD activity was measured using the DSB‐3 method. (C‐E) Cell proliferation inhibition following incubation of A549 cells with the indicated mitochondria‐ or nucleus‐targeted peptides for 24 h in a serum‐free medium, and cell proliferation was assayed using the SRB method. Results are the means ± SEM (n = 3). (F) A549 cells were incubated for 90 min with 5 µM of the mitochondria‐ or nucleus‐targeted FITC‐labelled peptides, immunostained with anti‐SMAC antibodies and with DAPI and visualized by confocal microscope for subcellular localization. (a) and (b) present higher magnification, white arrows point to possible nuclear localization of the peptide, and blue arrows to its colocalization with mitochondria marker (n = 3). Scale bars represent 20, 10 µm as indicated.
Table S4. Effects of peptide identified as interacting with PSD or their interaction with SMAC/Diablo is prevented in the presence of PSD on A549 lung cancer cell growth A549 cells were seeded in 96-well plate (7000 cells/well). After 24 h cells were incubated without or with the indicated peptide concentration for 24 h in a serum-free medium. Then, cells were washed with PBS, and analyzed for cell growth using the SRB method. Results are the mean ± SD (n=3). Peptide sequence, its identification manner, based on interacting with PSD or their interaction with SMAC/Diablo is prevented in the presence of PSD are shown. In addition, the peptides are presented with the cell penetrating peptide targeting to the mitochondria or the nucleus. The results are presented as the concentration required for 50% inhibition (IC50).
No Peptide spot and Protein/Function Peptide and Cellular IC50 […]
ALSTSSPIPSVPQSQ transcriptional coactivator 2 Mitochondria (A) […]
AQPQTGSGAS truncated poly Q, transcriptional H-(D-Arg)–Dmt–Orn–Phe- 2F3 >100 Interacting with PSD coactivator for NOTCH proteins, Mitochondria promotes proliferative signaling R-{D-Arg}-RK- 2F3 28.9±5.2 during neurogenesis (Nucleus). Nucleus […]
PNQSSRAFQGTDHS transcriptional coactivator 2 Mitochondria
SDLAFDFLSQQ truncated poly Q, A transcriptional D-Arg–Dmt–Orn–Phe-2I8 66.8±4.7 Identified by PSD coactivator for NOTCH proteins, Mitochondria preventing SMAC promotes proliferative signaling R-{D-Arg}-RK-2I8 >100 interaction with it during neurogenesis (Nucleus). Nucleus […]
ALLTSGTSDPRARV protease promotes cell death either Mitochondria […]
TYGTPSLWARL by direct binding to IAPs proteins D-Arg–Dmt–Orn–Phe -1C11 89.3±5.49 Interacting with PSD leading to increased caspase Mitochondria activity or caspase-independent and serine protease activity-dependent R-{D-Arg}-RK- 1C11 66.5±3.9 mechanism. (Mitochondrion Nucleus intermembrane space). 1C11- R-{D-Arg}-RK 30.0±3.8 […]
ELYRMSTYSTFPAG Acts as an E3 ubiquitin-protein Mitochondria
VPVSERSLARA ligase, regulator of NF-kappa-B 1E14- D-Arg–Dmt–Orn–Phe >100 Identified by PSD signaling, apoptosis, cell Mitochondria preventing SMAC proliferation, cell invasion and R-{D-Arg}-RK-1E14 >100 interaction with it metastasis, modulates inflammatory Nucleus signaling, (Cytosol, nucleus and […]

[1] = A549 cells, serum‐free medium, SRB, read-out: IC50, cell proliferation inhibition

Molecule	IC50 [µM]	IC50 [1] [µM]
CC(C)C[C@H](NC(=O)[C@H](CCCNC(=N)N)NC(=O)[C@H](C)NC(=O)[C@H](Cc1c[nH]c2ccccc12)NC(=O)[C@H](CC(C)C)NC(=O)[C@H](CO)NC(=O)[C@@H]1CCCN1C(=O)[C@@H](NC(=O)CNC(=O)[C@H](Cc1ccc(O)cc1)NC(=O)[C@@H](NC(=O)[C@@H](NC(=O)[C@H](CCCNC(=N)N)NC(=O)[C@H](C)NC(=O)[C@H](CCCNC(=N)N)NC(=O)[C@@H]1CCCN1C(=O)[C@H](CC(=O)O)NC(=O)[C@H](CO)NC(=O)[C@@H](NC(=O)CNC(=O)[C@H](CO)NC(=O)[C@@H](NC(=O)[C@H](CC(C)C)NC(=O)[C@H](CC(C)C)NC(=O)[C@H](C)NC(=O)[C@H](CCCCN)NC(=O)[C@H](CCCNC(=N)N)NC(=O)[C@@H](CCCNC(=N)N)NC(=O)[C@@H](N)CCCNC(=N)N)[C@@H](C)O)[C@@H](C)O)C(C)C)[C@@H](C)O)[C@@H](C)O)C(=O)O [R-{D-Arg}-RK- 1C11] (H-R[dR]RKALLTSGTSDPRARVTYGTPSLWARL-OH; N-terminus and C-terminus assumed)	66.5 ± 3.9	
CSCC[C@H](NC(=O)[C@H](CCCNC(=N)N)NC(=O)[C@H](Cc1ccc(O)cc1)NC(=O)[C@H](CC(C)C)NC(=O)[C@H](CCC(=O)O)NC(=O)[C@H](Cc1ccccc1)NC(=O)[C@H](CCCN)NC(=O)[C@H](Cc1c(C)cc(O)cc1C)NC(=O)[C@H](N)CCCNC(=N)N)C(=O)N[C@@H](CO)C(=O)N[C@H](C(=O)N[C@@H](Cc1ccc(O)cc1)C(=O)N[C@@H](CO)C(=O)N[C@H](C(=O)N[C@@H](Cc1ccccc1)C(=O)N1CCC[C@H]1C(=O)N[C@@H](C)C(=O)NCC(=O)N[C@H](C(=O)N1CCC[C@H]1C(=O)N[C@H](C(=O)N[C@@H](CO)C(=O)N[C@@H](CCC(=O)O)C(=O)N[C@@H](CCCNC(=N)N)C(=O)N[C@@H](CO)C(=O)N[C@@H](CC(C)C)C(=O)N[C@@H](C)C(=O)N[C@@H](CCCNC(=N)N)C(=O)N[C@@H](C)C(=O)O)C(C)C)C(C)C)[C@@H](C)O)[C@@H](C)O [D-Arg–Dmt–Orn–Phe-1E14] (H-[dR][Dmt][Orn]FELYRMSTYSTFPAGVPVSERSLARA-OH; N-terminus and C-terminus assumed)	> 100	
2F3 -D-Arg–Dmt–Orn–Phe		19.6
CC[C@H](C)[C@H](NC(=O)[C@@H]1CCCN1C(=O)[C@H](CO)NC(=O)[C@H](CO)NC(=O)[C@@H](NC(=O)[C@H](CO)NC(=O)[C@H](CC(C)C)NC(=O)[C@H](C)N)[C@@H](C)O)C(=O)N1CCC[C@H]1C(=O)N[C@@H](CO)C(=O)N[C@H](C(=O)N1CCC[C@H]1C(=O)N[C@@H](CCC(N)=O)C(=O)N[C@@H](CO)C(=O)N[C@@H](CCC(N)=O)C(=O)N[C@@H](C)C(=O)N[C@@H](CCC(N)=O)C(=O)N1CCC[C@H]1C(=O)N[C@@H](CCC(N)=O)C(=O)N[C@H](C(=O)NCC(=O)N[C@@H](CO)C(=O)NCC(=O)N[C@@H](C)C(=O)N[C@@H](CO)C(=O)N[C@@H](CCCNC(=N)N)C(=O)N[C@H](CCCNC(=N)N)C(=O)N[C@@H](CCCNC(=N)N)C(=O)N[C@@H](CCCCN)C(=O)O)[C@@H](C)O)C(C)C [2F3-R-{D-Arg}-RK] (H-ALSTSSPIPSVPQSQAQPQTGSGASR[dR]RK-OH; N-terminus and C-terminus assumed)	29.6 ± 0.6	19.6
CC(C)C[C@H](NC(=O)[C@H](CC(=O)O)NC(=O)[C@H](CO)NC(=O)[C@H](CO)NC(=O)[C@H](Cc1c[nH]cn1)NC(=O)[C@H](CC(=O)O)NC(=O)[C@@H](NC(=O)CNC(=O)[C@H](CCC(N)=O)NC(=O)[C@H](Cc1ccccc1)NC(=O)[C@H](C)NC(=O)[C@H](CCCNC(=N)N)NC(=O)[C@H](CO)NC(=O)[C@H](CO)NC(=O)[C@H](CCC(N)=O)NC(=O)[C@H](CC(N)=O)NC(=O)[C@@H]1CCCN1C(=O)[C@H](CCCCN)NC(=O)[C@H](CCCNC(=N)N)NC(=O)[C@@H](CCCNC(=N)N)NC(=O)[C@@H](N)CCCNC(=N)N)[C@@H](C)O)C(=O)N[C@@H](C)C(=O)N[C@@H](Cc1ccccc1)C(=O)N[C@@H](CC(=O)O)C(=O)N[C@@H](Cc1ccccc1)C(=O)N[C@@H](CC(C)C)C(=O)N[C@@H](CO)C(=O)N[C@@H](CCC(N)=O)C(=O)N[C@@H](CCC(N)=O)C(=O)O [R-{D-Arg}-RK-2I8] (H-R[dR]RKPNQSSRAFQGTDHSSDLAFDFLSQQ-OH; N-terminus and C-terminus assumed)	> 100	
CC[C@H](C)[C@H](NC(=O)[C@@H]1CCCN1C(=O)[C@H](CO)NC(=O)[C@H](CO)NC(=O)[C@@H](NC(=O)[C@H](CO)NC(=O)[C@H](CC(C)C)NC(=O)[C@H](C)NC(=O)[C@H](CCCCN)NC(=O)[C@H](CCCNC(=N)N)NC(=O)[C@@H](CCCNC(=N)N)NC(=O)[C@@H](N)CCCNC(=N)N)[C@@H](C)O)C(=O)N1CCC[C@H]1C(=O)N[C@@H](CO)C(=O)N[C@H](C(=O)N1CCC[C@H]1C(=O)N[C@@H](CCC(N)=O)C(=O)N[C@@H](CO)C(=O)N[C@@H](CCC(N)=O)C(=O)N[C@@H](C)C(=O)N[C@@H](CCC(N)=O)C(=O)N1CCC[C@H]1C(=O)N[C@@H](CCC(N)=O)C(=O)N[C@H](C(=O)NCC(=O)N[C@@H](CO)C(=O)NCC(=O)N[C@@H](C)C(=O)N[C@@H](CO)C(=O)O)[C@@H](C)O)C(C)C [R-{D-Arg}-RK- 2F3] (H-R[dR]RKALSTSSPIPSVPQSQAQPQTGSGAS-OH; N-terminus and C-terminus assumed)	28.9 ± 5.2	19.6
CC(C)C[C@H](NC(=O)[C@H](C)N)C(=O)N[C@@H](CC(C)C)C(=O)N[C@H](C(=O)N[C@@H](CO)C(=O)NCC(=O)N[C@H](C(=O)N[C@@H](CO)C(=O)N[C@@H](CC(=O)O)C(=O)N1CCC[C@H]1C(=O)N[C@@H](CCCNC(=N)N)C(=O)N[C@@H](C)C(=O)N[C@@H](CCCNC(=N)N)C(=O)N[C@H](C(=O)N[C@H](C(=O)N[C@@H](Cc1ccc(O)cc1)C(=O)NCC(=O)N[C@H](C(=O)N1CCC[C@H]1C(=O)N[C@@H](CO)C(=O)N[C@@H](CC(C)C)C(=O)N[C@@H](Cc1c[nH]c2ccccc12)C(=O)N[C@@H](C)C(=O)N[C@@H](CCCNC(=N)N)C(=O)N[C@@H](CC(C)C)C(=O)N[C@@H](CCCNC(=N)N)C(=O)N[C@H](CCCNC(=N)N)C(=O)N[C@@H](CCCNC(=N)N)C(=O)N[C@@H](CCCCN)C(=O)O)[C@@H](C)O)[C@@H](C)O)C(C)C)[C@@H](C)O)[C@@H](C)O [1C11-R-{D-Arg}-RK] (H-ALLTSGTSDPRARVTYGTPSLWARLR[dR]RK-OH; N-terminus and C-terminus assumed)	30	
